Measurements reported in publication PMC4546618, “Casitas B-Lineage Lymphoma RING Domain Inhibitors Protect Mice against High-Fat Diet-Induced Obesity and Insulin Resistance” (PLoS ONE, 2015).
*1 amine or outer side, *2 acyl side, *3 side chain or, on linkers, in order; H or OH if unused. Where a SMILES comes first, the peptide text is derived from it. [ ]: non-standard residue; d: D form. Phe(4-NO2) = N[C@@H](Cc1ccc([N+](=O)[O-])cc1)C(=O)O; Phe(4-N3) = [N-]=[N+]=Nc1ccc(C[C@H](N)C(=O)O)cc1; X2 = CC(=O)CN(CCCC[C@H](N[*:1])C(=O)[*:2])C(C)=O; Phe(4-CF3) = N[C@@H](Cc1ccc(C(F)(F)F)cc1)C(=O)O; Pro(trans-4-F) = O=C(O)[C@@H]1C[C@@H](F)CN1; X1 = CC(=O)N(O)CCCC[C@H](N[*:1])C(=O)[*:2]; Phe(4-NH2) = Nc1ccc(C[C@H](N)C(=O)O)cc1; Phe(3-F) = N[C@@H](Cc1cccc(F)c1)C(=O)O; Phe(3-Me) = Cc1cccc(C[C@H](N)C(=O)O)c1; Phe(4-F) = N[C@@H](Cc1ccc(F)cc1)C(=O)O; Phe(4-Me) = Cc1ccc(C[C@H](N)C(=O)O)cc1; Phe(2-F) = N[C@@H](Cc1ccccc1F)C(=O)O; Phe(2-Me) = Cc1ccccc1C[C@H](N)C(=O)O; Cha = N[C@@H](CC1CCCCC1)C(=O)O; ΔPro = O=C(O)[C@@H]1C=CCN1; Pip = O=C(O)[C@@H]1CCCCN1; Thz = O=C(O)[C@@H]1CSCN1; Aze = O=C(O)[C@@H]1CCN1

Molecular target: T1, Cbl (RING) protein (Homo sapiens, UniProt P22681)
T1 construct: including the linker and RING domain (codon 358–457); GST (Glutathione S-Transferase); made in house
T1 sequence (P22681 358-457): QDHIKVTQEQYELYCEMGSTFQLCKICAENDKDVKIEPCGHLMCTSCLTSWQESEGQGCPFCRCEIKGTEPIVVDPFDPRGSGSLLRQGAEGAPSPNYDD
Assay: Fluorescence polarization (FP) assay, competition with FITC-βA-PFKPP-NH2 probe
Type: binding
Conditions: probe FITC-βA-PFKPP-NH2 100 nmol/L, Cbl (RING) protein 3 μmol/L, PBS pH 7.4
Experimental: Peptides and peptide mimetics were purchased from MitenChem (China) with a purity ≥ 98%. Concentrations values of reconstituted peptides were determined by amino acid analysis at the protein core facility (Chengdu Medical College). The recombinant Cbl protein was produced by the Chengdu Medical College Protein Core Facility and was described previously. The c-Cbl (RING) protein, including the linker and RING domain (codon 358–457), was tagged with Glutathione S-Transferase (GST) and purified with GSH-Sepharose (Shanghai Biopharma).
The FP assay was developed and validated previously. Briefly, fluorescein-labeled probe (FITC-βA-PFKPP-NH2, 100 nmol/L) and Cbl (RING) protein (3 μmol/L) were mixed and diluted to the final concentration using 0.01% Triton X-100 in PBS (pH = 7.4). Then, 19 μl of this master mix was loaded to each reaction well. The peptides or peptide mimetics were then loaded to the designated wells (1 μl, 10 μmol/L– 0.078 μmol/L, half-fold dilutions). The total fluorescence and polarization values were measured at an excitation wavelength of 485 nm and an emission wavelength of 538 nm using a ZS-2 plate reader. The data was fitted, and the ΔmP, Kd, and Ki values were estimated, using SigmaPlot 11.0.

Row | SMILES | Ki [µM]
1 | CC(=O)N1CCC[C@H]1C(=O)N[C@@H](CC1CCCCC1)C(=O)N[C@@H](CCCCN)C(=O)N1CCC[C@H]1C(=O)N1CCC[C@H]1C(N)=O [Peptide 5, Ac-P(c)KPP-NH2] (Ac-P[Cha]KPP-NH2) | 125 ± 12.6
2 | CC(=O)N1CCC[C@H]1C(=O)N[C@@H](Cc1ccccc1C)C(=O)N[C@@H](CCCCN)C(=O)N1CCC[C@H]1C(=O)N1CCC[C@H]1C(N)=O [Peptide 6, Ac-P(d)KPP-NH2] (Ac-P[Phe(2-Me)]KPP-NH2) | 10.2 ± 1.5
3 | CC(=O)N1CCC[C@H]1C(=O)N[C@@H](Cc1cccc(C)c1)C(=O)N[C@@H](CCCCN)C(=O)N1CCC[C@H]1C(=O)N1CCC[C@H]1C(N)=O [Peptide 7, Ac-P(e)KPP-NH2] (Ac-P[Phe(3-Me)]KPP-NH2) | 4.5 ± 1
4 | CC(=O)N1CCC[C@H]1C(=O)N[C@@H](Cc1ccc(C)cc1)C(=O)N[C@@H](CCCCN)C(=O)N1CCC[C@H]1C(=O)N1CCC[C@H]1C(N)=O [Peptide 8, Ac-P(f)KPP-NH2] (Ac-P[Phe(4-Me)]KPP-NH2) | 5.4 ± 2.2
5 | CC(=O)N1CCC[C@H]1C(=O)N[C@@H](Cc1ccccc1F)C(=O)N[C@@H](CCCCN)C(=O)N1CCC[C@H]1C(=O)N1CCC[C@H]1C(N)=O [Peptide 9, Ac-P(g)KPP-NH2] (Ac-P[Phe(2-F)]KPP-NH2) | 3.5 ± 0.6
6 | CC(=O)N1CCC[C@H]1C(=O)N[C@@H](Cc1ccc(F)cc1)C(=O)N[C@@H](CCCCN)C(=O)N1CCC[C@H]1C(=O)N1CCC[C@H]1C(N)=O [Peptide 11, Ac-P(i)KPP-NH2] (Ac-P[Phe(4-F)]KPP-NH2) | 2.4 ± 0.5
7 | CC(=O)N1CCC[C@H]1C(=O)N[C@@H](Cc1ccc(N)cc1)C(=O)N[C@@H](CCCCN)C(=O)N1CCC[C@H]1C(=O)N1CCC[C@H]1C(N)=O [Peptide 12, Ac-P(j)KPP-NH2] (Ac-P[Phe(4-NH2)]KPP-NH2) | 4.5 ± 0.8
8 | CC(=O)N1CCC[C@H]1C(=O)N[C@@H](Cc1ccc([N+](=O)[O-])cc1)C(=O)N[C@@H](CCCCN)C(=O)N1CCC[C@H]1C(=O)N1CCC[C@H]1C(N)=O [Peptide 13, Ac-P(k)KPP-NH2] (Ac-P[Phe(4-NO2)]KPP-NH2) | 4.2 ± 0.4
9 | CC(=O)N1CCC[C@H]1C(=O)N[C@@H](Cc1ccc(C(F)(F)F)cc1)C(=O)N[C@@H](CCCCN)C(=O)N1CCC[C@H]1C(=O)N1CCC[C@H]1C(N)=O [Peptide 14, Ac-P(l)KPP-NH2] (Ac-P[Phe(4-CF3)]KPP-NH2) | 25.4 ± 0.7
10 | CC(=O)N1CCC[C@H]1C(=O)N[C@@H](Cc1ccc(N=[N+]=[N-])cc1)C(=O)N[C@@H](CCCCN)C(=O)N1CCC[C@H]1C(=O)N1CCC[C@H]1C(N)=O [Peptide 15, Ac-P(m)KPP-NH2] (Ac-P[Phe(4-N3)]KPP-NH2) | 8.4 ± 0.4
11 | CC(=O)N1CCC[C@H]1C(=O)N[C@H](Cc1ccccc1)C(=O)N[C@@H](CCCCN)C(=O)N1CCC[C@H]1C(=O)N1CCC[C@H]1C(N)=O [Peptide 16, Ac-P(n)KPP-NH2] (Ac-P[dF]KPP-NH2) | 15.4 ± 0.4
12 | CC(=O)N1CCC[C@H]1C(=O)N[C@@H](Cc1cccc(F)c1)C(=O)N[C@@H](CCCCN)C(=O)N1CCC[C@H]1C(=O)N1CCC[C@@H]1C(N)=O [Peptide 17, Ac-P(h)KP(o)-NH2] (Ac-P[Phe(3-F)]KP[dP]-NH2) | 12.5 ± 0.9
13 | CC(=O)N1CCC[C@H]1C(=O)N[C@@H](Cc1cccc(F)c1)C(=O)N[C@@H](CCCCN)C(=O)N1CCC[C@H]1C(=O)N1CC=C[C@H]1C(N)=O [Peptide 18, Ac-P(h)KP(p)-NH2] (Ac-P[Phe(3-F)]KP[ΔPro]-NH2) | > 250
14 | CC(=O)N1CCC[C@H]1C(=O)N[C@@H](Cc1cccc(F)c1)C(=O)N[C@@H](CCCCN)C(=O)N1CCC[C@H]1C(=O)N1CC[C@H]1C(N)=O [Peptide 19, Ac-P(h)KP(q)-NH2] (Ac-P[Phe(3-F)]KP[Aze]-NH2) | > 250
15 | CC(=O)N1CCC[C@H]1C(=O)N[C@@H](Cc1cccc(F)c1)C(=O)N[C@@H](CCCCN)C(=O)N1CCC[C@H]1C(=O)N1CSC[C@H]1C(N)=O [Peptide 20, Ac-P(h)KP(r)-NH2] (Ac-P[Phe(3-F)]KP[Thz]-NH2) | 3.7 ± 0.4
16 | CC(=O)N1CCC[C@H]1C(=O)N[C@@H](Cc1cccc(F)c1)C(=O)N[C@@H](CCCCN)C(=O)N1CCC[C@H]1C(=O)N1CCCC[C@H]1C(N)=O [Peptide 21, Ac-P(h)KP(s)-NH2] (Ac-P[Phe(3-F)]KP[Pip]-NH2) | 90.9 ± 0.7
17 | CC(=O)N1CCC[C@H]1C(=O)N[C@@H](Cc1cccc(F)c1)C(=O)N[C@@H](CCCCN)C(=O)N1CCC[C@H]1C(=O)N1C[C@H](F)C[C@H]1C(N)=O [Peptide 22, Ac-P(h)KP(t)-NH2] (Ac-P[Phe(3-F)]KP[Pro(trans-4-F)]-NH2) | 31.2 ± 0.4

Row | SMILES | Ki [µM]
18 | CC(=O)N1CCC[C@H]1C(=O)N[C@@H](Cc1cccc(F)c1)C(=O)N[C@@H](CCCCN)C(=O)N1CCC[C@@H]1C(=O)N1CCC[C@H]1C(N)=O [Peptide 24, Ac-P(h)K(o)P-NH2] (Ac-P[Phe(3-F)]K[dP]P-NH2) | 3.5 ± 0.4
19 | CC(=O)N1CCC[C@H]1C(=O)N[C@@H](Cc1cccc(F)c1)C(=O)N[C@@H](CCCCN)C(=O)N1CC=C[C@H]1C(=O)N1CCC[C@H]1C(N)=O [Peptide 25, Ac-P(h)K(p)P-NH2] (Ac-P[Phe(3-F)]K[ΔPro]P-NH2) | > 250
20 | CC(=O)N1CCC[C@H]1C(=O)N[C@@H](Cc1cccc(F)c1)C(=O)N[C@@H](CCCCN)C(=O)N1CC[C@H]1C(=O)N1CCC[C@H]1C(N)=O [Peptide 26, Ac-P(h)K(q)P-NH2] (Ac-P[Phe(3-F)]K[Aze]P-NH2) | > 250
21 | CC(=O)N1CCC[C@H]1C(=O)N[C@@H](Cc1cccc(F)c1)C(=O)N[C@@H](CCCCN)C(=O)N1CCCC[C@H]1C(=O)N1CCC[C@H]1C(N)=O [Peptide 28, Ac-P(h)K(s)P-NH2] (Ac-P[Phe(3-F)]K[Pip]P-NH2) | 136 ± 11.2
22 | CC(=O)N1CCC[C@H]1C(=O)N[C@@H](Cc1cccc(F)c1)C(=O)N[C@@H](CCCCN)C(=O)N1C[C@H](F)C[C@H]1C(=O)N1CCC[C@H]1C(N)=O [Peptide 29, Ac-P(h)K(t)P-NH2] (Ac-P[Phe(3-F)]K[Pro(trans-4-F)]P-NH2) | 24.6 ± 5.8
23 | CC(=O)N1CCC[C@@H]1C(=O)N[C@@H](Cc1cccc(F)c1)C(=O)N[C@@H](CCCCN)C(=O)N1CCC[C@H]1C(=O)N1CCC[C@H]1C(N)=O [Peptide 31, Ac-(o) (h)KPP-NH2] (Ac-[dP][Phe(3-F)]KPP-NH2) | 4.5 ± 0.5
24 | CC(=O)N1CC=C[C@H]1C(=O)N[C@@H](Cc1cccc(F)c1)C(=O)N[C@@H](CCCCN)C(=O)N1CCC[C@H]1C(=O)N1CCC[C@H]1C(N)=O [Peptide 32, Ac-(p) (h)KPP-NH2] (Ac-[ΔPro][Phe(3-F)]KPP-NH2) | > 250
25 | CC(=O)N1CC[C@H]1C(=O)N[C@@H](Cc1cccc(F)c1)C(=O)N[C@@H](CCCCN)C(=O)N1CCC[C@H]1C(=O)N1CCC[C@H]1C(N)=O [Peptide 33, Ac-(q) (h)KPP-NH2] (Ac-[Aze][Phe(3-F)]KPP-NH2) | > 250
26 | CC(=O)N1CCCC[C@H]1C(=O)N[C@@H](Cc1cccc(F)c1)C(=O)N[C@@H](CCCCN)C(=O)N1CCC[C@H]1C(=O)N1CCC[C@H]1C(N)=O [Peptide 35, Ac-(s) (h)KPP-NH2] (Ac-[Pip][Phe(3-F)]KPP-NH2) | 122 ± 9.8
27 | CC(=O)N1C[C@H](F)C[C@H]1C(=O)N[C@@H](Cc1cccc(F)c1)C(=O)N[C@@H](CCCCN)C(=O)N1CCC[C@H]1C(=O)N1CCC[C@H]1C(N)=O [Peptide 36, Ac-(t) (h)KPP-NH2] (Ac-[Pro(trans-4-F)][Phe(3-F)]KPP-NH2) | 14.5 ± 2.9
28 | CC(=O)N(O)CCCC[C@H](NC(=O)[C@H](Cc1cccc(F)c1)NC(=O)[C@@H]1CSCN1C(C)=O)C(=O)N1CCC[C@H]1C(=O)N1CCC[C@H]1C(N)=O [Peptide 38, Ac-(r) (h) (v)PP-NH2] (Ac-[Thz][Phe(3-F)][X1]PP-NH2) | 21.6 ± 2.6
29 | CC(=O)CN(CCCC[C@H](NC(=O)[C@H](Cc1cccc(F)c1)NC(=O)[C@@H]1CSCN1C(C)=O)C(=O)N1CCC[C@H]1C(=O)N1CCC[C@H]1C(N)=O)C(C)=O [Peptide 39, Ac-(r) (h) (w)PP-NH2] (Ac-[Thz][Phe(3-F)][X2]PP-NH2) | 28.3 ± 2.8
30 | CC(=O)N[C@@H](CCCCN(O)C(C)=O)C(=O)N1CCC[C@H]1C(=O)N[C@@H](C)C(=O)N[C@H](C(=O)N[C@@H](CCCCN)C(N)=O)[C@@H](C)O [Peptide 40, Ac-(v)PATK-NH2] (Ac-[X1]PATK-NH2) | 51.8 ± 0.8
31 | CC(=O)CN(CCCC[C@H](NC(C)=O)C(=O)N1CCC[C@H]1C(=O)N[C@@H](C)C(=O)N[C@H](C(=O)N[C@@H](CCCCN)C(N)=O)[C@@H](C)O)C(C)=O [Peptide 41, Ac-(w)PATK-NH2] (Ac-[X2]PATK-NH2) | 96.2 ± 12.6
32 | CC(=O)N[C@@H](CCCCN)C(=O)N1CCC[C@H]1C(=O)N[C@@H](C)C(=O)N[C@H](C(=O)N[C@@H](CCCCN(O)C(C)=O)C(N)=O)[C@@H](C)O [Peptide 42, Ac-KPAT(v)-NH2] (Ac-KPAT[X1]-NH2) | 59.8 ± 6.5
33 | CC(=O)CN(CCCC[C@H](NC(=O)[C@@H](NC(=O)[C@H](C)NC(=O)[C@@H]1CCCN1C(=O)[C@H](CCCCN)NC(C)=O)[C@@H](C)O)C(N)=O)C(C)=O [Peptide 43, Ac-KPAT(w)-NH2] (Ac-KPAT[X2]-NH2) | 72.6 ± 9.5
